Active and inactive are the calls of the source. The rule behind the calls is not given here.
Columns and labels:
C2C12 [1] = assay: Inhibition of insulin-resistance in insulin-resistant mouse C2C12 cells assessed as increase in AKT phosphorylation pretreated for 24 hrs followed by compound washout and further addition of insulin measured after 20 mins by Western blot analysis; assay type: functional, cell-based; conditions: dose 0.625-2.5 µM
[2] = biological target: T1, Tyrosine-protein phosphatase non-receptor type 1 (Homo sapiens, UniProt P18031); assay: Binding affinity to PTP1B (unknown origin) assessed as dissociation constant by SPR analysis
T1 sequence (P18031 whole entry): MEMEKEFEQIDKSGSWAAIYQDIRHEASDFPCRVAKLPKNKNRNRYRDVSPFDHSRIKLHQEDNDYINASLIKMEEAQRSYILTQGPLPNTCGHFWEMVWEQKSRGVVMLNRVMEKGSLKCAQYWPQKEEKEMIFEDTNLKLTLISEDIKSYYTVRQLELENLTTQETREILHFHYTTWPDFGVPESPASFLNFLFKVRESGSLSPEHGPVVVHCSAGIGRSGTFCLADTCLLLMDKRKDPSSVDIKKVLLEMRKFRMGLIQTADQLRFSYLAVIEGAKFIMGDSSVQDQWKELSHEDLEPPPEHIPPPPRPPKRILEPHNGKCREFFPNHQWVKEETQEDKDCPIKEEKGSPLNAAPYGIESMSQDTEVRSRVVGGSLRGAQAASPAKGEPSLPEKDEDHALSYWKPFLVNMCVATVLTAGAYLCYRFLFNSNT

C2C12 [3] = assay: Induction of glucose uptake in mouse C2C12 cells cultured in low glucose medium containing compound for 24 hrs; assay type: functional, cell-based; conditions: dose 0.625-2.5 µmol/L
[4] = Acute toxicity in Kunming mouse assessed as change in cell morphology of heart at 2000 mg/kg, po measured for 14 days by H and E staining based analysis; assay type: organism-based; conditions: in vivo, 336 h, time 14 day
[5] = Toxicity in BKD db/db mouse assessed as effect on liver weight at 40 to 80 mg/kg/day, po qd for 8 weeks; assay type: organism-based; conditions: in vivo, 1344 h, dose 40-80 mg/kg/day
[6] = Acute toxicity in Kunming mouse assessed as toxic effects at 2000 mg/kg, po measured for 14 days; assay type: organism-based; conditions: in vivo, 336 h, time 14 day
[7] = Acute toxicity in Kunming mouse assessed as change in cell morphology of spleen at 2000 mg/kg, po measured for 14 days by H and E staining based analysis; assay type: organism-based; conditions: in vivo, 336 h, time 14 day
[8] = biological target: T2, Tyrosine-protein phosphatase non-receptor type 2 (Homo sapiens, UniProt P17706); assay: Inhibition of TCPTP (unknown origin) using pNPP as substrate incubated for 30 mins by spectrophotometry
T2 sequence (P17706 whole entry): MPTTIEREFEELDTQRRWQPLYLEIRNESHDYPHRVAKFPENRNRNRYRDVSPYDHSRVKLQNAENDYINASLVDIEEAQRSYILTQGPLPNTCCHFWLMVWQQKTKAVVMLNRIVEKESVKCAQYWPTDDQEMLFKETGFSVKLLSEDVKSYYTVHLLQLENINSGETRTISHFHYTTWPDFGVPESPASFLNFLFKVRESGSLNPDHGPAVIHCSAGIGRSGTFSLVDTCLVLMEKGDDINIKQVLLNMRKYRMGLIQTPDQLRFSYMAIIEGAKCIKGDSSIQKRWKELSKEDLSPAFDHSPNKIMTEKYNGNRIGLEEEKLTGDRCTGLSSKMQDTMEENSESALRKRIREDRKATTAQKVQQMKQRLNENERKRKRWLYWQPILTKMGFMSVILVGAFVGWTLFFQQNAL

Hepatocyte = assay: Inhibition of insulin-resistance in insulin-resistant C57BL/J mouse […] primary hepatocytes assessed as increase in insulin receptor phosphorylation pretreated for 24 hrs followed by compound washout and further addition of insulin measured after 20 mins by Western blot analysis; assay type: functional, cell-based; conditions: dose 0.625-2.5 µM
[9] = Acute toxicity in Kunming mouse assessed as animal mortality at 2000 mg/kg, po measured for 14 days; assay type: organism-based; conditions: in vivo, 336 h, time 14 day
Mus musculus [10] = assay: Hypoglycemic activity in BKD db/db mouse assessed as increase in insulin receptor phosphorylation in liver at 40 to 80 mg/kg/day, po for 8 weeks by Western blot analysis; assay type: functional, organism-based; conditions: dose 40-80 mg/kg/day
[11] = Acute toxicity in Kunming mouse assessed as change in cell morphology of liver at 2000 mg/kg, po measured for 14 days by H and E staining based analysis; assay type: organism-based; conditions: in vivo, 336 h, time 14 day
[12] = Inhibition of PTP1B N193A/K197A mutant (unknown origin) using pNPP as substrate incubated for 30 mins by spectrophotometry; set-up: species or system Homo sapiens
3T3-L1 [13] = assay: Induction of glucose uptake in mouse 3T3-L1 cells cultured in low glucose medium containing compound for 24 hrs; assay type: functional, cell-based; conditions: dose 0.625-2.5 µmol/L
3T3-L1 [14] = assay: Inhibition of insulin-resistance in insulin-resistant mouse 3T3-L1 cells assessed as increase in insulin receptor phosphorylation pretreated for 24 hrs followed by compound washout and further addition of insulin measured after 20 mins by Western blot analysis; assay type: functional, cell-based; conditions: dose 0.625-2.5 µM
Mus musculus [15] = assay: Hypoglycemic activity in BKD db/db mouse assessed as increase in AKT phosphorylation in liver at 40 to 80 mg/kg/day, po for 8 weeks by Western blot analysis; assay type: functional, organism-based; conditions: dose 40-80 mg/kg/day
Mus musculus [16] = assay: Hypoglycemic activity in BKD db/db mouse assessed as decrease in blood glucose level at 40 to 80 mg/kg/day, po for 6 weeks by OGTT method; assay type: functional, organism-based; conditions: dose 40-80 mg/kg/day
Mus musculus [17] = assay: Hypoglycemic activity in BKD db/db mouse assessed as reduction in lipid droplet accumulation in liver at 40 to 80 mg/kg/day, po for 8 weeks by H and E staining based analysis; assay type: functional, organism-based; conditions: dose 40-80 mg/kg/day
HepG2 = assay: Inhibition of insulin-resistance in insulin-resistant human HepG2 cells assessed as increase in AKT phosphorylation pretreated for 24 hrs followed by compound washout and further addition of insulin measured after 20 mins by Western blot analysis; assay type: functional, cell-based; conditions: dose 0.625-2.5 µM
Mus musculus [18] = assay: Hypoglycemic activity in BKD db/db mouse assessed as decrease in blood glucose level at 40 to 80 mg/kg/day, po qd for 3 to 4 weeks; assay type: functional, organism-based; conditions: dose 40-80 mg/kg/day, time 3-4 weeks
[19] = Toxicity in BKD db/db mouse assessed as effect on para-metrial white adipose tissue weight at 40 to 80 mg/kg/day, po qd for 8 weeks; assay type: organism-based; conditions: in vivo, 1344 h, dose 40-80 mg/kg/day
[20] = Toxicity in BKD db/db mouse assessed as effect on epididymal white adipose tissue weight at 40 to 80 mg/kg/day, po qd for 8 weeks; assay type: organism-based; conditions: in vivo, 1344 h, dose 40-80 mg/kg/day
[21] = Toxicity in BKD db/db mouse assessed as effect on food intake at 40 to 80 mg/kg/day, po qd for 8 weeks; assay type: organism-based; conditions: in vivo, 1344 h, dose 40-80 mg/kg/day

Compound: CCOc1ccc(Oc2ccc(C(=O)/C=C/c3cc(O)c(O)c(Br)c3Br)cc2)cc1
- inhibition (C2C12 [1]): Dose-dependent-effect
- Kd [2]: 0.0612 µM
- Activity (C2C12 [3]): Dose-dependent-effect
- Activity [4]: Non-toxic
- Activity [5]: Non-toxic
- Activity [6]: Non-toxic
- Activity [7]: Non-toxic
- IC50 [8]: 15.8 µM
- inhibition (Hepatocyte): Dose-dependent-effect
- Activity [9]: Non-toxic
- Activity (Mus musculus [10]): Active
- Activity [11]: Non-toxic
- IC50 [12]: 14.8 µM
- Activity (3T3-L1 [13]): Dose-dependent-effect
- inhibition (3T3-L1 [14]): Dose-dependent-effect
- Activity (Mus musculus [15]): Active
- Activity (Mus musculus [16]): Active
- Activity (Mus musculus [17]): Active
- inhibition (HepG2): Dose-dependent-effect
- Activity (Mus musculus [18]): Active
- Activity [19]: Non-toxic
- Activity [20]: Non-toxic
- Activity [21]: Non-toxic
